# Measurements from ChEMBL document CHEMBL6127009, “Discovery of L15 as a novel Vif PROTAC degrader with antiviral activity against HIV-1” (Bioorg Med Chem Lett, 2024).
# Structures can show the parent of a compound that is named as a salt. The source made the active and inactive calls. No cut-off for these calls is given here.
# Key:
# [1] = Cytotoxicity against human TZM-bl cells; assay type: toxicity, cell-based
# [2] = test system: Human immunodeficiency virus 1; assay: Antiviral activity against HIV-1 IIIB infected in TZM-bl cells; assay type: functional, organism-based; settings: Human immunodeficiency virus 1, IIIB
# [3] = Therapeutic index, ratio of CC50 for human TZM-bl cells to EC50 for HIV IIIB infected in TZM-bl cells; assay type: toxicity, cell-based; settings: read-out: Ratio CC50/EC50
# [4] = test system: Human immunodeficiency virus 1; assay: Antiviral activity against HIV-1 9498 infected in C8166 cells; assay type: functional, organism-based; settings: Human immunodeficiency virus 1, 9498, C8166
# [5] = test system: Human immunodeficiency virus 1; assay: Antiviral activity against HIV-1 A17 infected in C8166 cells; assay type: functional, organism-based; settings: Human immunodeficiency virus 1, A17, C8166
# [6] = test system: Human immunodeficiency virus 1; assay: Antiviral activity against HIV-1 4755-5 infected in C8166 cells; assay type: functional, organism-based; settings: Human immunodeficiency virus 1, 4755-5, C8166
# [7] = test system: Human immunodeficiency virus 1; assay: Antiviral activity against HIV1 at 1 uM measured after 8 hrs; assay type: functional, organism-based
# [8] = test system: Human immunodeficiency virus 1; assay: Antiviral activity against HIV-1 WAN infected in PHA-P stimulated PBMCs; assay type: functional, organism-based; settings: Human immunodeficiency virus 1, WAN, PBMC
# [9] = test system: Human immunodeficiency virus 1; assay: Antiviral activity against HIV1 at 1 uM measured after 2 to 4 hrs; assay type: functional, organism-based; settings: time 2-4 hrs
# [10] = test system: Human immunodeficiency virus 1; assay: Antiviral activity against HIV-1 KIZ002 infected in PHA-P stimulated PBMCs; assay type: functional, organism-based; settings: Human immunodeficiency virus 1, KIZ002, PBMC
# [11] = test system: Human immunodeficiency virus 1; assay: Antiviral activity against HIV-1 G140S/Q148H infected in C8166 cells; assay type: functional, organism-based; settings: Human immunodeficiency virus 1, G140S/Q148H
# [12] = test system: Human immunodeficiency virus 1; assay: Antiviral activity against HIV-1 IIIB infected in C8166 cells; assay type: functional, organism-based; settings: Human immunodeficiency virus 1, IIIB
# [13] = biological target: T1, Protein cereblon/Virion infectivity factor (Human immunodeficiency virus type 1 group M subtype B (isolate NY5)(HIV-1)) (UniProt Q96SW2+P12504); assay: PROTAC activity at CRBN (unknown origin)/Vif in HIV-1 TREX-hvif-15 cells assessed as reduction in Vif protein level at 50 uM pretreated with MG132 followed by compound addition and measured after 24 hrs by Western blotting analysis; assay type: cell-based; settings: TREX-hvif-15 cell
# T1 sequence (P12504 whole entry, looked up): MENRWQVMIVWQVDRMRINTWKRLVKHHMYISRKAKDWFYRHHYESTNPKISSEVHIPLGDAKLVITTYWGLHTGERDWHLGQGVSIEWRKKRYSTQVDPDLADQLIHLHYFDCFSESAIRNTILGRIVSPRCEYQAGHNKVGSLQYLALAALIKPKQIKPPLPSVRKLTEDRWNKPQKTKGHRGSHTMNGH
# T1 sequence (Q96SW2 whole entry, looked up): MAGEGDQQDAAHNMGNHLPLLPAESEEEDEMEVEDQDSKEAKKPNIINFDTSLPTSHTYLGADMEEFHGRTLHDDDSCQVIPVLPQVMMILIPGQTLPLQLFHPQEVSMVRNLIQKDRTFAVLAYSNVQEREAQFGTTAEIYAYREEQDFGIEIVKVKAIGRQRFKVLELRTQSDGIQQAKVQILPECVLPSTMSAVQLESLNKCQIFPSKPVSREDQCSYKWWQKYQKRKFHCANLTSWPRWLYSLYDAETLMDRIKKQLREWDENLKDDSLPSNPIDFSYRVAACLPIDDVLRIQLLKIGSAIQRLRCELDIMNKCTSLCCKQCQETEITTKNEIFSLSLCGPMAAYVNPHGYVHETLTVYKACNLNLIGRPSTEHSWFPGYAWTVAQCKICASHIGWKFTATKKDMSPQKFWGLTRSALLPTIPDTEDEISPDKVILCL
# [14] = test system: Human immunodeficiency virus 1; assay: Antiviral activity against HIV-1 2802 infected in C8166 cells; assay type: functional, organism-based; settings: Human immunodeficiency virus 1, 2802, C8166
# [15] = biological target: T1, Protein cereblon/Virion infectivity factor (Human immunodeficiency virus type 1 group M subtype B (isolate NY5)(HIV-1)); assay: PROTAC activity at CRBN (unknown origin)/Vif in HIV-1 TREX-hvif-15 cells assessed as reduction in Vif protein level at 50 uM by Western blotting analysis; assay type: cell-based; settings: TREX-hvif-15 cell
Compound,EC50 [2],CC50 [1],other results
COc1ccc(OCC(=O)NCCOCCNCC(=O)Nc2cccc3c2C(=O)N(C2CCC(=O)NC2=O)C3=O)cc1NC(=O)c1c(N)cccc1Sc1ccc([N+](=O)[O-])cc1 (centres undefined),> 100 µM,> 200 µM,
CC(C)OC(=O)OCOP(=O)(CO[C@H](C)Cn1cnc2c(N)ncnc21)OCOC(=O)OC(C)C [TENOFOVIR DISOPROXIL FUMARATE],0.005 µM,> 200 µM,selectivity ratio [3]: > 43800
COc1ccc(OCC(=O)NCCOCCOCCOCCNCC(=O)Nc2cccc3c2C(=O)N(C2CCC(=O)NC2=O)C3=O)cc1NC(=O)c1c(N)cccc1Sc1ccc([N+](=O)[O-])cc1 (centres undefined),> 100 µM,> 200 µM,
COc1ccc(OCC(=O)NCCNCC(=O)Nc2cccc3c2C(=O)N(C2CCC(=O)NC2=O)C3=O)cc1NC(=O)c1c(N)cccc1Sc1ccc([N+](=O)[O-])cc1 (centres undefined),> 100 µM,> 200 µM,
COc1ccc(OCC(=O)NCCCCCCCCCCNc2cccc3c2C(=O)N(C2CCC(=O)NC2=O)C3=O)cc1NC(=O)c1c(N)cccc1Sc1ccc([N+](=O)[O-])cc1 (centres undefined),> 100 µM,> 200 µM,
enfuvirtide,,,EC50 [4]: > 10 µM
COc1ccc(OCC(=O)NCCCCCCNc2cccc3c2C(=O)N(C2CCC(=O)NC2=O)C3=O)cc1NC(=O)c1c(N)cccc1Sc1ccc([N+](=O)[O-])cc1 (centres undefined),> 100 µM,> 200 µM,
Nc1ccn([C@@H]2CS[C@H](CO)O2)c(=O)n1 [LAMIVUDINE],,,EC50 [5]: 0.28 µM; EC50 [6]: 76.9 µM; Activity [7]: inactive; EC50 [8]: 0.15 µM; Activity [9]: Active; EC50 [10]: 0.09 µM; EC50 [11]: 5.61 µM; EC50 [12]: 0.16 µM
COc1ccc(OCC(=O)NCCNc2cccc3c2C(=O)N(C2CCC(=O)NC2=O)C3=O)cc1NC(=O)c1c(N)cccc1Sc1ccc([N+](=O)[O-])cc1 (centres undefined),> 100 µM,> 200 µM,
COc1ccc(OCC(=O)NCCCCNc2cccc3c2C(=O)N(C2CCC(=O)NC2=O)C3=O)cc1NC(=O)c1c(N)cccc1Sc1ccc([N+](=O)[O-])cc1 (centres undefined),34.8 µM,> 200 µM,selectivity ratio [3]: > 5.76
COc1ccc(OCC(=O)NCCOCCOCCNc2cccc3c2C(=O)N(C2CCC(=O)N(C)C2=O)C3=O)cc1NC(=O)c1c(N)cccc1Sc1ccc([N+](=O)[O-])cc1 (centres undefined),,,Activity [13]: inactive
COc1ccc(OCC(=O)NCCCCCCCCNCC(=O)Nc2cccc3c2C(=O)N(C2CCC(=O)NC2=O)C3=O)cc1NC(=O)c1c(N)cccc1Sc1ccc([N+](=O)[O-])cc1 (centres undefined),> 100 µM,> 200 µM,
CC(C)CN(C[C@@H](O)[C@H](Cc1ccccc1)NC(=O)O[C@H]1CO[C@H]2OCC[C@H]21)S(=O)(=O)c1ccc(N)cc1 [DARUNAVIR],,,EC50 [14]: < 0.032 µM
COc1ccc(OCC(=O)NCCCCCCCCNc2cccc3c2C(=O)N(C2CCC(=O)NC2=O)C3=O)cc1NC(=O)c1c(N)cccc1Sc1ccc([N+](=O)[O-])cc1 (centres undefined),> 100 µM,> 200 µM,
COc1ccc(O)cc1NC(=O)c1c(N)cccc1Sc1ccc([N+](=O)[O-])cc1,5.97 µM,> 200 µM,selectivity ratio [3]: > 33.5; Activity [15]: inactive
COc1ccc(OCC(=O)NCCCCNCC(=O)Nc2cccc3c2C(=O)N(C2CCC(=O)NC2=O)C3=O)cc1NC(=O)c1c(N)cccc1Sc1ccc([N+](=O)[O-])cc1 (centres undefined),> 100 µM,> 200 µM,
COc1ccc(OCC(=O)NCCCCCCCCCCNCC(=O)Nc2cccc3c2C(=O)N(C2CCC(=O)NC2=O)C3=O)cc1NC(=O)c1c(N)cccc1Sc1ccc([N+](=O)[O-])cc1 (centres undefined),> 100 µM,> 200 µM,
COc1ccc(O)cc1NC(=O)c1c(N)cccc1S(=O)(=O)c1ccc([N+](=O)[O-])cc1,2.14 µM,> 200 µM,selectivity ratio [3]: > 93.5; Activity [15]: inactive
COc1ccc(OCC(=O)NCCCCCCCCCCNCC(=O)Nc2cccc3c2C(=O)N(C2CCC(=O)NC2=O)C3=O)cc1NC(=O)c1c(N)cccc1S(=O)(=O)c1ccc([N+](=O)[O-])cc1 (centres undefined),29 µM,> 200 µM,selectivity ratio [3]: > 6.9
COc1ccc(OCC(=O)NCCCCCCNCC(=O)Nc2cccc3c2C(=O)N(C2CCC(=O)NC2=O)C3=O)cc1NC(=O)c1c(N)cccc1Sc1ccc([N+](=O)[O-])cc1 (centres undefined),> 100 µM,> 200 µM,

# Continued, in another order:
EC50 [2],Compound,CC50 [1],other results
> 100 µM,COc1ccc(OCC(=O)NCCCCCCNc2cccc3c2C(=O)N(C2CCC(=O)NC2=O)C3=O)cc1NC(=O)c1c(N)cccc1S(=O)(=O)c1ccc([N+](=O)[O-])cc1 (centres undefined),> 200 µM,
> 100 µM,COc1ccc(OCC(=O)NCCOCCNc2cccc3c2C(=O)N(C2CCC(=O)NC2=O)C3=O)cc1NC(=O)c1c(N)cccc1Sc1ccc([N+](=O)[O-])cc1 (centres undefined),> 200 µM,
21.3 µM,COc1ccc(OCC(=O)NCCOCCOCCOCCNCC(=O)Nc2cccc3c2C(=O)N(C2CCC(=O)NC2=O)C3=O)cc1NC(=O)c1c(N)cccc1S(=O)(=O)c1ccc([N+](=O)[O-])cc1 (centres undefined),> 200 µM,selectivity ratio [3]: > 9.39
> 100 µM,COc1ccc(OCC(=O)NCCOCCOCCNc2cccc3c2C(=O)N(C2CCC(=O)NC2=O)C3=O)cc1NC(=O)c1c(N)cccc1S(=O)(=O)c1ccc([N+](=O)[O-])cc1 (centres undefined),> 200 µM,
> 100 µM,COc1ccc(OCC(=O)NCCCCNCC(=O)Nc2cccc3c2C(=O)N(C2CCC(=O)NC2=O)C3=O)cc1NC(=O)c1c(N)cccc1S(=O)(=O)c1ccc([N+](=O)[O-])cc1 (centres undefined),> 200 µM,
66.9 µM,COc1ccc(OCC(=O)NCCOCCOCCNCC(=O)Nc2cccc3c2C(=O)N(C2CCC(=O)NC2=O)C3=O)cc1NC(=O)c1c(N)cccc1S(=O)(=O)c1ccc([N+](=O)[O-])cc1 (centres undefined),> 200 µM,selectivity ratio [3]: > 2.99
> 100 µM,COc1ccc(OCC(=O)NCCNc2cccc3c2C(=O)N(C2CCC(=O)NC2=O)C3=O)cc1NC(=O)c1c(N)cccc1S(=O)(=O)c1ccc([N+](=O)[O-])cc1 (centres undefined),> 200 µM,
> 100 µM,COc1ccc(OCC(=O)NCCOCCNCC(=O)Nc2cccc3c2C(=O)N(C2CCC(=O)NC2=O)C3=O)cc1NC(=O)c1c(N)cccc1S(=O)(=O)c1ccc([N+](=O)[O-])cc1 (centres undefined),> 200 µM,
> 100 µM,COc1ccc(OCC(=O)NCCNCC(=O)Nc2cccc3c2C(=O)N(C2CCC(=O)NC2=O)C3=O)cc1NC(=O)c1c(N)cccc1S(=O)(=O)c1ccc([N+](=O)[O-])cc1 (centres undefined),> 200 µM,
> 100 µM,COc1ccc(OCC(=O)NCCOCCOCCOCCNc2cccc3c2C(=O)N(C2CCC(=O)NC2=O)C3=O)cc1NC(=O)c1c(N)cccc1S(=O)(=O)c1ccc([N+](=O)[O-])cc1 (centres undefined),> 200 µM,
> 100 µM,COc1ccc(OCC(=O)NCCCCCCCCCCNc2cccc3c2C(=O)N(C2CCC(=O)NC2=O)C3=O)cc1NC(=O)c1c(N)cccc1S(=O)(=O)c1ccc([N+](=O)[O-])cc1 (centres undefined),> 200 µM,
> 100 µM,COc1ccc(OCC(=O)NCCCCNc2cccc3c2C(=O)N(C2CCC(=O)NC2=O)C3=O)cc1NC(=O)c1c(N)cccc1S(=O)(=O)c1ccc([N+](=O)[O-])cc1 (centres undefined),> 200 µM,
> 100 µM,COc1ccc(OCC(=O)NCCCCCCCCNc2cccc3c2C(=O)N(C2CCC(=O)NC2=O)C3=O)cc1NC(=O)c1c(N)cccc1S(=O)(=O)c1ccc([N+](=O)[O-])cc1 (centres undefined),> 200 µM,
> 100 µM,COc1ccc(OCC(=O)NCCOCCNc2cccc3c2C(=O)N(C2CCC(=O)NC2=O)C3=O)cc1NC(=O)c1c(N)cccc1S(=O)(=O)c1ccc([N+](=O)[O-])cc1 (centres undefined),> 200 µM,
53.1 µM,COc1ccc(OCC(=O)NCCOCCOCCNCC(=O)Nc2cccc3c2C(=O)N(C2CCC(=O)NC2=O)C3=O)cc1NC(=O)c1c(N)cccc1Sc1ccc([N+](=O)[O-])cc1 (centres undefined),> 200 µM,selectivity ratio [3]: > 3.77
> 100 µM,COc1ccc(OCC(=O)NCCCCCCCCNCC(=O)Nc2cccc3c2C(=O)N(C2CCC(=O)NC2=O)C3=O)cc1NC(=O)c1c(N)cccc1S(=O)(=O)c1ccc([N+](=O)[O-])cc1 (centres undefined),> 200 µM,
> 100 µM,COc1ccc(OCC(=O)NCCOCCOCCOCCNc2cccc3c2C(=O)N(C2CCC(=O)NC2=O)C3=O)cc1NC(=O)c1c(N)cccc1Sc1ccc([N+](=O)[O-])cc1 (centres undefined),> 200 µM,
> 100 µM,COc1ccc(OCC(=O)NCCCCCCNCC(=O)Nc2cccc3c2C(=O)N(C2CCC(=O)NC2=O)C3=O)cc1NC(=O)c1c(N)cccc1S(=O)(=O)c1ccc([N+](=O)[O-])cc1 (centres undefined),> 200 µM,
